From patent US20220357341A1, “COMPOSITIONS AND METHODS FOR AN IL-17 TARGET ENGAGEMENT ASSAY WITH SMALL MOLECULE MODULATORS” (Janssen Pharmaceutica NV, priority 2019, published 2022)

What follows are molecules tested against T1, IL-17 (Homo sapiens, UniProt Q16552) (assay: Free IL-17 ELISA: capture antibody of DuoSet ELISA kit DY317 paired with mAb4538 as detection agent, IL-17 titration with 10 μM SM modulator). Details: capture antibody of DuoSet ELISA kit DY317, detection agent mAb4538 500 ng/ml, FIGS. 2A-2F.
T1 construct: serial dilutions of recombinant IL-17 were prepared in diluent
T1 sequence (Q16552 24-155): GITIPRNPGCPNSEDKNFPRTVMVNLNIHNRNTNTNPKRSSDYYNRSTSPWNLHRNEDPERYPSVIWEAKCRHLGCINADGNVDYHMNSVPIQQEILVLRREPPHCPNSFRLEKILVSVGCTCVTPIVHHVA
Type: binding
Description: Two-fold and 8-point serial dilutions of recombinant IL-17 were prepared in diluent starting from 1 ng/ml, in duplicate. For testing differentiating property on SM modulators, IL-17 calibration samples were prepared in the presence of 10 μM SM modulators or vehicle control containing 0.1% DMSO. IL-17 samples were incubated for 1 hour at 37° C.
(§1) High binding 96-well plates were coated with 100 μL/well of 4 μg/ml capture antibody in PBS overnight at room temperature. Coated plates were washed 6×400 μL/well on plate washer (Zoom HT Microplate Washer) and blocked with 300 μL/well blocker (1% BSA in PBS) at room temperature for 2.5 hours followed by 6×400 μL/well on plate washer.
Samples were prepared by incubating titrated IL-17 with SM modulators at final concentration of 10 μM. IL-17 levels were measured in ELISA assay by adding 95 μL/well samples to the capture antibody coated plates. Plates were kept at room temperature for 30 minutes and then 5 μL/well of detecting agent were added to a final of 500 ng/mL, kept at room temperature for another 30 minutes, followed by washing 6×400 μL/well on plate washer. Development of color for measurement was performed by adding streptavidin conjugated horseradish peroxidase at 100 μL/well and incubated for 20 minutes at room temperature in the dark, followed by 6×400 μL/well on plate washer, and then addition of 100 μL/well pf substrate solution, incubated for 20 minutes at room temperature in the dark. Reaction was then stopped by addition of 50 μL/well of stop solution and plates were measured in plate reader at 450-540 nm.
(§2) Optical density (OD) readout from plate reader (Molecular Devices Spectra Max 340fPC) were analyzed with Softmax Pro6.3 and GraphPad Prism, and plotted as dose response curve of OD values vs IL-17 concentrations.

Molecule	detection of free IL-17 versus SM modulator-bound IL-17 (OD vs IL-17 concentration)
NC(=O)CC[C@H]1NC(=O)[C@@H](Cc2ccc(NC(=O)[C@H](Cc3ccccc3Cl)NC(=O)Cc3ccc(F)cc3)cc2)NC(=O)CC2(CCCC2)CC(=O)NCCCCCNC1=O [Compound #2]	detection of free IL-17, but not modulator-bound IL-17
C[C@H]1NC(=O)[C@@H](Cc2ccc(NC(=O)[C@H](Cc3ccccc3Cl)NC(=O)Cc3ccc(F)cc3)cc2)NC(=O)CC2(CCCC2)CC(=O)N[C@H](C(=O)O)CCCCNC1=O [Compound #3]	detection of free IL-17, but not modulator-bound IL-17
C[C@H]1NC(=O)[C@@H](Cc2ccc(NC(=O)[C@H](Cc3ccccc3Cl)NC(=O)Cc3ccc(CO)cc3)cc2)NC(=O)CC2(CCCC2)CC(=O)NCCCCCNC1=O [Compound #4]	detection of free IL-17, but not modulator-bound IL-17
O=C1CNC(=O)[C@@H](Cc2ccc(NC(=O)[C@H](Cc3ccccc3Cl)NC(=O)Cc3ccccc3)cc2)NC(=O)CC2(CCCC2)CC(=O)NCCCCCN1 [Compound #5]	detection of free IL-17, but not modulator-bound IL-17
O=C(CC1(CC(=O)N2CCCC2)CCCC1)NCCc1ccc(NC(=O)[C@H](Cc2ccccc2Cl)NC(=O)C(F)(F)c2ccccc2)cc1 [Compound #6]	detection of free IL-17, but not modulator-bound IL-17

Each molecule was assayed against T2, human IL-17 (interleukin 17A), recombinant, free (not bound to a small molecule modulator) (human, UniProt Q16552 24-155, limits assumed) (assay: sandwich ELISA: plate coated with capture antibody of DuoSet DY317, IL-17A titrated in 0.1% DMSO vehicle, mAb4538 at 500 ng/mL as detection agent, streptavidin-HRP readout). Details: not given.
T2 construct: Recombinant IL-17 used as calibrator in the sandwich ELISAs; also called IL-17A; free IL-17
T2 sequence (Q16552 24-155 limits assumed): as the sequence (Q16552 24-155) above
Description: as §1
Samples were prepared by incubating titrated IL-17 with SM modulators at final concentration of 10 μM. IL-17 levels were measured in ELISA assay by adding 95 μL/well samples to the capture antibody coated plates. Plates were kept at room temperature for 30 minutes and then 5 μL/well of detecting agent were added to a final of 500 ng/mL, kept at room temperature for another 30 minutes, followed by washing 6×400 μL/well on plate washer. […] Reaction was then stopped by addition of 50 μL/well of stop solution and plates were measured in plate reader at 450-540 nm.
as §2

binding result	Molecule
binds	mAb4538 (Janssen Biotech, Inc.) (antibody, human IgG1, lambda, V domains shown, also called human mAb4538 antibody) VH: QVQLQQSGPGLVKPSQTLSLTCAISGDSVSSSSAAWGWIRQSPSRGLEWLGRISYRSKWYNDYAVSVKSRITINPDTSKNQFSLQLNSVTPEDTAVYYCAREVDSMYYSYFDIWGQGTLVTVSS VL: EIVLTQSPATLSLSPGERATLSCRASQNVWAFYLAWYQQKPGQAPRLLIYGASNRATGIPARFSGSGSGTDFTLTISSLEPEDFAVYYCQQYRSTLSLTFGQGTKVEIKG
